Measured values from US20250114430A1, “MODIFIED PEPTIDOMIMETICS AND METHODS OF USE” (The University of North Carolina at Chapel Hill, priority 2021, published 2025).
No end group written: not given here.

Key:
[1] = system: mouse hepatitis virus (MHV-A59; a murine coronavirus); experiment: Murine coronavirus MHV-A59 infection; format: in vivo
Procedure: Mice were dosed intranasally with 10^6 PFU MHIV-A59 followed by vehicle (saline) or 1.0 mg/kg of ELD607 per mouse 4 d p.i. BAL and lungs were collected 6 d p.i.
ELD607 normalized leukocyte composition and viral loads in the airways after murine coronavirus infection. Coronaviruses are emerging pathogens with severe outcomes in the human population. Mice were infected with 10^6 PFU mouse hepatitis virus (MHV-A59; a murine coronavirus) intranasally. The mice were then dosed with 1.0 mg/kg ELD607 or vehicle intranasally 4 days p.i. and then 2 days after dosing with ELD607 (6 days p.i.), mice were sacrificed to collect BAL and lung homogenates.

[2] = format: in vitro ADME, human
Source text: ELD607 is active in ARDS patient immune cells. Pulmonary neutrophilic inflammation and increased lung neutrophil elastase levels are common in ARDS patient lungs. We therefore evaluated whether ELD607 remained stable in BAL samples patients with ARDS caused by bacterial pneumonia. […] (FIG. 27, panel A).

Orai1 = Orai1 (Homo sapiens, UniProt Q96D31); experiment: Thapsigargin / Ca^2+ add back assay in HEK293T cells with anti-Orai1 shRNA; format: cell-based; design: Endogenous Orai1/store operated Ca^2+ influx have been extensively studied in HEK293T cells; endogenous in cells; host or cells: HEK293T
Chain of Orai1 (Q96D31 whole entry): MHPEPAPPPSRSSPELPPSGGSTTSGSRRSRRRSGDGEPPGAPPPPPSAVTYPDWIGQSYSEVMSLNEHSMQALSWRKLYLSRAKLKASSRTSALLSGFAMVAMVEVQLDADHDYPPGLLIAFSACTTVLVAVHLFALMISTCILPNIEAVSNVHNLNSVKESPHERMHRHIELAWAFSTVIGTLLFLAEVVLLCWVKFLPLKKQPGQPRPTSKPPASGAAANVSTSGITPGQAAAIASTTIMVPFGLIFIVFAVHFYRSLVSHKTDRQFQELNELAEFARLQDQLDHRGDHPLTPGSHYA
Procedure: HEK293T cells were transfected with anti-Orai1 shRNA for 48 h and the change in Fluo4 fluorescence was measured. Cells were then exposed to vehicle or […] ELD607 for 1 h. Thapsigargin was then added followed by extracellular Ca^2+ to differentiate ER Ca^2+ release and SOCE. n=8 cultures per condition.
ELD607 requires Orai1 expression to inhibit Ca^2+ signaling. […] Using this approach, curves were fitted to the data and the 50% inhibitory concentrations (IC50S) were calculated.

[3] = target: T1, human neutrophil elastase (Homo sapiens, UniProt P08246); format: in vitro ADME
T1 sequence (P08246 30-267): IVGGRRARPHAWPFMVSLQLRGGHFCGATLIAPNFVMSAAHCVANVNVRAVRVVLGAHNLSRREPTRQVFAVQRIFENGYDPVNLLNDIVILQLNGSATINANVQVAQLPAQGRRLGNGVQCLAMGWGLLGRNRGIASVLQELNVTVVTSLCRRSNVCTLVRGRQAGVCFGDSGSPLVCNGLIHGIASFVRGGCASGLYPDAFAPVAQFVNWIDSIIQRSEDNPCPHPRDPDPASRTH
Procedure: Peptides were exposed to NE over time, and the reaction was stopped by addition of sivelestat. HPLC was then performed in order to determine peptide stability. N=3-4 replicates per time point.
HEK293T cells were plated and incubated for 2 hours with Fluo-4 plus or minus ELD peptides, with fluorescent images taken every 30 seconds for 2-6 minutes at excitation/emission wavelengths of 488/530 nm. […] Candidate peptides ELD604, 607, 601, and 100 were tested for resistance against protease degradation, wherein the peptides were incubated with neutrophil elastase, treated with the elastase inhibitor sivelestat at various timepoints to halt ongoing reactions, and then analyzed by HPLC (FIG. 9).
(§1) Endogenous Orai1/store operated Ca^2+ influx have been extensively studied in HEK293T cells, so this cell type was used to understand ELD607-Orai1 interactions. […] Thapsigargin is a SERCA pump inhibitor that prevents uptake of cytosolic Ca^2+ into the endoplasmic reticulum. Thapsigargin is commonly used to stimulate Orai1/store operated Ca^2+ influx. […] Dynamic light scattering (DLS) was used to evaluate binding of ELD607 to peptides of Orai1 extracellular loops. […] Thus, it was concluded that ELD607 interacts with Orai1.

[4] = target: T2, Orai1 extracellular peptide 1 (OP1) (Homo sapiens, UniProt Q96D31); experiment: Dynamic light scattering binding to Orai1 extracellular loop peptide OP1; conditions: DLS, Orai1 amino acids 106-119
T2 construct: corresponding to amino acids 106-119 ([…]
Source text: as §1

E. coli LPS = E. coli LPS sepsis model, intravenous ELD607; format: in vivo, mice; conditions: LPS intraperitoneally
Procedure: We injected mice intraperitoneally with E. coli LPS, followed by 0.5 mg/kg ELD607 injected intravenously 1 h later.

[5] = 1.0 mg/kg intranasal 4 days p.i., read 6 days p.i.

With VHDIVNMLIRG [ELD607, VHDIVNMLIRG] the “lung lymphocyte levels (B cells and T cells)” value [1, 5] was “significantly reduced lung lymphocyte levels”, the “lung monocyte and macrophage levels” value [1, 5] was “normalized lung monocyte and macrophage levels” and the “viral loads in the lungs and BAL” value ([1]; one dose 1.0 mg/kg) was “significantly reduced”. The “stability in ARDS BAL” value [2] was “remained stable over 8 h”, the “thapsigargin-stimulated Ca^2+ release from the ER” value (Orai1; absence of extracellular Ca^2+) was “had no effect on this component” and the “effect on Ca^2+ homeostasis after shRNA knockdown of Orai1” value (Orai1; anti-Orai1 shRNA 48 h) was “no longer able to affect Ca^2+ homeostasis”. For the same sequence, the “Ca^2+ influx” value (Orai1; extracellular Ca^2+ added back) was “reduced Ca^2+ influx”, the “stability against neutrophil elastase” value [3] was “significant increase in stability” and the “stability relative to a6 after exposure to human neutrophil elastase” value [3] was “four times more stable”. For the same sequence, the “interaction with OP1 (Z-average increase)” value [4] was “significant interactions”, the blood macrophages (E. coli LPS; 0.5 mg/kg intravenously) was “significantly increased blood macrophages” and the blood neutrophilia (E. coli LPS; 0.5 mg/kg intravenously) was “significantly reduced blood neutrophilia”. The weight loss (E. coli LPS; 0.5 mg/kg intravenously 1 h later) was “significant prevented weight loss”.
